# Laboratory results reported in ChEMBL document CHEMBL1201862, “PubChem BioAssay data set” (2004).
#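 Grown in 96-well plates, cells were treated for 48 hours with each compound at five concentrations. Insufficient inhibition: endpoint recorded as highest concentration tested. At the GI50, growth is halved.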 Active and inactive are the calls of the source. Rule as the data show it: active = GI50 up to about 1.1 µM and inactive = higher.
# Columns and labels:
# Assay in all cases: NCI-60 cell line screen, 48 h
# [1] = system: OVCAR-5
# [2] = system: SK-MEL-2
# [3] = system: MDA-N
# [4] = system: SF-268
# [5] = system: SNB-19
# [6] = system: CAKI-1
# [7] = system: HOP-62
# [8] = system: SK-OV-3
# [9] = system: SF-295
# [10] = system: HT-29
# [11] = system: Malme-3M
# [12] = system: EKVX
# [13] = system: CCRF-CEM
# [14] = system: M14
# [15] = system: KM12
# [16] = system: MOLT-4
# [17] = system: SK-MEL-5
# [18] = system: UO-31
# [19] = system: RXF 393
# [20] = system: HCT-15
# [21] = system: K562
# [22] = system: UACC-62
# [23] = system: COLO 205
# [24] = system: UACC-257
# [25] = system: NCI-H23
# [26] = system: 786-0
# [27] = system: MDA-MB-231
# [28] = system: DU-145
# [29] = system: SNB-75
# [30] = system: HCT-116
# [31] = system: NCI-H522
# [32] = system: Hs-578T
# [33] = system: PC-3
# [34] = system: SR
# [35] = system: U-251
# [36] = system: OVCAR-3
# [37] = system: A549
# [38] = system: TK-10
# [39] = system: MDA-MB-435
# [40] = system: NCI-H226
# [41] = system: RPMI-8226
# [42] = system: A498
# [43] = system: HL-60
# [44] = system: OVCAR-4
# [45] = system: SW-620
# [46] = system: SK-MEL-28
# [47] = system: IGROV-1
# [48] = system: HOP-92
# [49] = system: SN12C
# [50] = system: T47D
# [51] = system: HCC 2998
# [52] = system: SF-539
# [53] = system: NCI-H460
# [54] = system: ACHN
# [55] = system: BT-549
# [56] = system: LOX IMVI
# [57] = system: OVCAR-8
# [58] = system: MCF7
# [59] = system: NCI/ADR-RES
compound,measurement,setting,value
C=C1C(O)C23CCC4C(C(=O)O)(C(=O)O)CC(OC5OC(CO)C(O)C(OC(=O)CCc6ccccc6)C5NC(=O)CC(C)C)CC4(C)C2CCC1(O)C3 (stereo not given),GI50,[1],> 100 µM (inactive)
same,GI50,[2],> 100 µM (inactive)
same,GI50,[3],> 100 µM (inactive)
same,GI50,[4],> 100 µM (inactive)
same,GI50,[5],> 100 µM (inactive)
same,GI50,[6],> 100 µM (inactive)
same,GI50,[7],> 100 µM (inactive)
same,GI50,[8],> 100 µM (inactive)
same,GI50,[9],> 100 µM (inactive)
same,GI50,[10],> 100 µM (inactive)
same,GI50,[11],> 100 µM (inactive)
same,GI50,[12],> 100 µM (inactive)
same,GI50,[13],> 100 µM (inactive)
same,GI50,[14],> 100 µM (inactive)
same,GI50,[15],> 100 µM (inactive)
same,GI50,[16],> 100 µM (inactive)
same,GI50,[17],> 100 µM (inactive)
same,GI50,[18],> 100 µM (inactive)
same,GI50,[19],> 100 µM (inactive)
same,GI50,[20],> 100 µM
same,GI50,[21],> 100 µM (inactive)
same,GI50,[22],> 100 µM (inactive)
same,GI50,[23],> 100 µM (inactive)
same,GI50,[24],> 100 µM (inactive)
same,GI50,[25],> 100 µM (inactive)
same,GI50,[26],> 100 µM (inactive)
same,GI50,[27],> 100 µM (inactive)
same,GI50,[28],> 100 µM (inactive)
same,GI50,[29],> 100 µM (inactive)
same,GI50,[30],> 100 µM (inactive)
same,GI50,[31],> 100 µM (inactive)
same,GI50,[32],> 100 µM (inactive)
same,GI50,[33],> 100 µM (inactive)
same,GI50,[34],> 100 µM (inactive)
same,GI50,[35],> 100 µM (inactive)
same,GI50,[36],> 100 µM (inactive)
same,GI50,[37],> 100 µM (inactive)
same,GI50,[38],> 100 µM (inactive)
same,GI50,[39],> 100 µM (inactive)
same,GI50,[40],> 100 µM (inactive)
same,GI50,[41],> 100 µM (inactive)
same,GI50,[42],> 100 µM (inactive)
same,GI50,[43],> 100 µM (inactive)
same,GI50,[44],> 100 µM (inactive)
same,GI50,[45],> 100 µM (inactive)
same,GI50,[46],> 100 µM (inactive)
same,GI50,[47],> 100 µM (inactive)
same,GI50,[48],> 100 µM (inactive)
same,GI50,[49],> 100 µM (inactive)
same,GI50,[50],> 100 µM (inactive)
same,GI50,[51],> 100 µM (inactive)
same,GI50,[52],> 100 µM (inactive)
same,GI50,[53],> 100 µM (inactive)
same,GI50,[54],> 100 µM (inactive)
same,GI50,[55],> 100 µM (inactive)
same,GI50,[56],> 100 µM (inactive)
same,GI50,[57],> 100 µM (inactive)
Cc1ccc(/N=N/NCCCCN)cc1,GI50,[1],> 100 µM (inactive)
same,GI50,[2],> 100 µM (inactive)
same,GI50,[3],> 100 µM (inactive)
same,GI50,[4],> 100 µM (inactive)
same,GI50,[5],49.2 µM (inactive)
same,GI50,[6],> 100 µM (inactive)
same,GI50,[7],> 100 µM (inactive)
same,GI50,[8],> 100 µM (inactive)
same,GI50,[9],19.3 µM (inactive)
same,GI50,[10],> 100 µM (inactive)
same,GI50,[11],> 100 µM (inactive)
same,GI50,[12],> 100 µM (inactive)
same,GI50,[13],9.64 µM (inactive)
same,GI50,[14],> 100 µM (inactive)
same,GI50,[15],81.7 µM (inactive)
same,GI50,[16],7.26 µM (inactive)
same,GI50,[17],23.8 µM (inactive)
same,GI50,[18],12.2 µM (inactive)
same,GI50,[19],> 100 µM (inactive)
same,GI50,[58],> 100 µM (inactive)
same,GI50,[20],> 100 µM
same,GI50,[21],> 10 µM (inactive)
same,GI50,[22],> 100 µM (inactive)
same,GI50,[23],> 100 µM (inactive)
same,GI50,[24],> 100 µM (inactive)
same,GI50,[25],> 100 µM (inactive)
same,GI50,[26],> 100 µM (inactive)
same,GI50,[27],> 100 µM (inactive)
same,GI50,[28],> 100 µM (inactive)
same,GI50,[29],> 100 µM (inactive)
same,GI50,[30],> 100 µM (inactive)
same,GI50,[31],> 100 µM (inactive)
same,GI50,[59],> 100 µM (inactive)
same,GI50,[32],> 100 µM (inactive)
same,GI50,[34],> 100 µM (inactive)
same,GI50,[37],8.75 µM (inactive)
same,GI50,[38],> 100 µM (inactive)
same,GI50,[39],> 100 µM (inactive)
same,GI50,[40],> 100 µM (inactive)
same,GI50,[41],5.86 µM (inactive)
same,GI50,[42],> 100 µM (inactive)
same,GI50,[43],3.79 µM (inactive)
same,GI50,[44],> 100 µM (inactive)
same,GI50,[45],> 100 µM (inactive)
same,GI50,[47],> 100 µM (inactive)
same,GI50,[48],> 100 µM (inactive)
same,GI50,[49],> 100 µM (inactive)
same,GI50,[50],> 100 µM (inactive)
same,GI50,[51],> 100 µM (inactive)
same,GI50,[52],> 100 µM (inactive)
same,GI50,[54],12.6 µM (inactive)
same,GI50,[55],> 100 µM (inactive)
same,GI50,[56],10.1 µM (inactive)
same,GI50,[57],> 100 µM (inactive)
CC1(C)O[C@@H]([C@@H](O)[C@H](O)C2SCCCS2)[C@@H](CO)O1,GI50,[1],> 100 µM (inactive)
same,GI50,[2],> 100 µM (inactive)
same,GI50,[3],> 100 µM (inactive)
same,GI50,[4],> 100 µM (inactive)
same,GI50,[5],> 100 µM (inactive)
same,GI50,[6],> 100 µM (inactive)
same,GI50,[7],> 100 µM (inactive)
same,GI50,[8],> 100 µM (inactive)
same,GI50,[9],> 100 µM (inactive)
same,GI50,[10],> 100 µM (inactive)
same,GI50,[11],> 100 µM (inactive)
same,GI50,[12],> 100 µM (inactive)
same,GI50,[13],> 100 µM (inactive)
same,GI50,[14],> 100 µM (inactive)
same,GI50,[15],> 100 µM (inactive)
same,GI50,[16],> 100 µM (inactive)
same,GI50,[17],> 100 µM (inactive)
same,GI50,[18],> 100 µM (inactive)
same,GI50,[19],> 100 µM (inactive)
same,GI50,[20],> 100 µM
same,GI50,[21],> 100 µM (inactive)
same,GI50,[22],> 100 µM (inactive)
same,GI50,[23],> 100 µM (inactive)
same,GI50,[24],> 100 µM (inactive)
same,GI50,[25],> 100 µM (inactive)
same,GI50,[26],> 100 µM (inactive)
same,GI50,[27],> 100 µM (inactive)
same,GI50,[28],> 100 µM (inactive)
same,GI50,[29],> 100 µM (inactive)
same,GI50,[30],> 100 µM (inactive)
same,GI50,[31],> 100 µM (inactive)
same,GI50,[59],> 100 µM (inactive)
same,GI50,[32],> 100 µM (inactive)
same,GI50,[33],> 100 µM (inactive)
same,GI50,[35],> 100 µM (inactive)
same,GI50,[36],> 100 µM (inactive)
same,GI50,[37],> 100 µM (inactive)
same,GI50,[38],> 100 µM (inactive)
same,GI50,[39],> 100 µM (inactive)
same,GI50,[40],> 100 µM (inactive)
same,GI50,[41],> 100 µM (inactive)
same,GI50,[42],> 100 µM (inactive)
same,GI50,[43],> 100 µM (inactive)
same,GI50,[45],> 100 µM (inactive)
same,GI50,[46],> 100 µM (inactive)
same,GI50,[47],> 100 µM (inactive)
same,GI50,[48],> 100 µM (inactive)
same,GI50,[49],> 100 µM (inactive)
same,GI50,[50],> 100 µM (inactive)
same,GI50,[53],> 100 µM (inactive)
same,GI50,[54],> 100 µM (inactive)
same,GI50,[55],> 100 µM (inactive)
same,GI50,[56],> 100 µM (inactive)
same,GI50,[57],> 100 µM (inactive)
